Laboratory results reported in the NIST ThermoML archive (doi:10.1016/j.fluid.2019.05.003).
± gives the expanded uncertainty stated by the source.

Assay: xn = mol fraction of the nth substance listed
Conditions: 101 kPa, Liquid; for viscosity: Falling or rolling sphere viscometry; for mass density: Vibrating tube method

C[N+]1(CCO)CCOCC1.[Br-] [N-methyl-N-(2-hydroxyethyl)morpholinium bromide] + O
Conditions	mass density [kg/m3]	viscosity [mPa·s]
298.15 K, x1 = 0.023	1078.7 ± 0.6	1.173 ± 0.071
298.15 K, x1 = 0.038	1121 ± 0.6	1.482 ± 0.09
298.15 K, x1 = 0.051	1150.9 ± 0.5	1.716 ± 0.1
298.15 K, x1 = 0.075	1197.8 ± 0.4	2.345 ± 0.14
298.15 K, x1 = 0.097	1232 ± 0.4	3.195 ± 0.19
298.15 K, x1 = 0.124	1264.8 ± 0.4	4.717 ± 0.29
298.15 K, x1 = 0.157	1297.5 ± 0.4	7.331 ± 0.44
298.15 K, x1 = 0.197	1328.8 ± 0.4	14.15 ± 0.86
298.15 K, x1 = 0.227	1345.7 ± 0.4	20.61 ± 1.2
303.15 K, x1 = 0.023	1076.7 ± 0.6	1.058 ± 0.064
303.15 K, x1 = 0.038	1118.8 ± 0.6	1.33 ± 0.08
303.15 K, x1 = 0.051	1148.6 ± 0.5	1.536 ± 0.093
303.15 K, x1 = 0.075	1195.3 ± 0.4	2.087 ± 0.13
303.15 K, x1 = 0.097	1229.3 ± 0.4	2.831 ± 0.17
303.15 K, x1 = 0.124	1262 ± 0.4	4.126 ± 0.25
303.15 K, x1 = 0.157	1294.6 ± 0.4	6.314 ± 0.38
303.15 K, x1 = 0.197	1325.9 ± 0.4	12.14 ± 0.74
303.15 K, x1 = 0.227	1342.8 ± 0.4	17.39 ± 1.1
308.15 K, x1 = 0.023	1074.6 ± 0.6	0.962 ± 0.058
308.15 K, x1 = 0.038	1116.5 ± 0.6	1.206 ± 0.073
308.15 K, x1 = 0.051	1146.2 ± 0.5	1.385 ± 0.084
308.15 K, x1 = 0.075	1192.7 ± 0.4	1.878 ± 0.11
308.15 K, x1 = 0.097	1226.6 ± 0.4	2.526 ± 0.15
308.15 K, x1 = 0.124	1259.2 ± 0.4	3.653 ± 0.22
308.15 K, x1 = 0.157	1291.7 ± 0.4	5.635 ± 0.34
308.15 K, x1 = 0.197	1322.9 ± 0.4	10.46 ± 0.63
308.15 K, x1 = 0.227	1339.7 ± 0.4	14.76 ± 0.89
313.15 K, x1 = 0.023	1072.3 ± 0.6	0.88 ± 0.053
313.15 K, x1 = 0.038	1114.1 ± 0.6	1.101 ± 0.067
313.15 K, x1 = 0.051	1143.6 ± 0.5	1.26 ± 0.076
313.15 K, x1 = 0.075	1190 ± 0.4	1.7 ± 0.1
313.15 K, x1 = 0.097	1223.8 ± 0.4	2.278 ± 0.14
313.15 K, x1 = 0.124	1256.4 ± 0.4	3.255 ± 0.2
313.15 K, x1 = 0.157	1288.8 ± 0.4	4.938 ± 0.3
313.15 K, x1 = 0.197	1319.9 ± 0.4	9.042 ± 0.55
313.15 K, x1 = 0.227	1336.7 ± 0.4	12.6 ± 0.76
318.15 K, x1 = 0.023	1069.8 ± 0.6	0.81 ± 0.049
318.15 K, x1 = 0.038	1111.6 ± 0.6	1.011 ± 0.061
318.15 K, x1 = 0.051	1141 ± 0.5	1.154 ± 0.07
318.15 K, x1 = 0.075	1187.3 ± 0.4	1.547 ± 0.094
318.15 K, x1 = 0.097	1221 ± 0.4	2.062 ± 0.12
318.15 K, x1 = 0.124	1253.5 ± 0.4	2.921 ± 0.18
318.15 K, x1 = 0.157	1285.8 ± 0.4	4.371 ± 0.27
318.15 K, x1 = 0.197	1316.9 ± 0.4	7.869 ± 0.48
318.15 K, x1 = 0.227	1333.7 ± 0.4	10.85 ± 0.66
323.15 K, x1 = 0.023	1066.9 ± 0.6	0.754 ± 0.046
323.15 K, x1 = 0.038	1109 ± 0.6	0.933 ± 0.056
323.15 K, x1 = 0.051	1138.2 ± 0.5	1.061 ± 0.064
323.15 K, x1 = 0.075	1184.5 ± 0.4	1.416 ± 0.086
323.15 K, x1 = 0.097	1218.1 ± 0.4	1.88 ± 0.11
323.15 K, x1 = 0.124	1250.5 ± 0.4	2.641 ± 0.16
323.15 K, x1 = 0.157	1282.8 ± 0.4	3.899 ± 0.24
323.15 K, x1 = 0.197	1313.9 ± 0.4	6.877 ± 0.42
323.15 K, x1 = 0.227	1330.6 ± 0.4	9.429 ± 0.57
328.15 K, x1 = 0.023	1064.7 ± 0.6	0.703 ± 0.043
328.15 K, x1 = 0.038	1106.2 ± 0.6	0.871 ± 0.053
328.15 K, x1 = 0.051	1135.9 ± 0.5	0.982 ± 0.059
328.15 K, x1 = 0.075	1181.6 ± 0.4	1.305 ± 0.079
328.15 K, x1 = 0.097	1215.1 ± 0.4	1.718 ± 0.1
328.15 K, x1 = 0.124	1247.6 ± 0.4	2.4 ± 0.14
328.15 K, x1 = 0.157	1279.8 ± 0.4	3.505 ± 0.21
328.15 K, x1 = 0.197	1310.7 ± 0.4	6.095 ± 0.37
328.15 K, x1 = 0.227	1327.5 ± 0.4	8.272 ± 0.5
333.15 K, x1 = 0.023	1062.5 ± 0.6	0.656 ± 0.04
333.15 K, x1 = 0.038	1103.3 ± 0.6	0.807 ± 0.049
333.15 K, x1 = 0.051	1133.3 ± 0.5	0.913 ± 0.055
333.15 K, x1 = 0.075	1178.7 ± 0.4	1.201 ± 0.073
333.15 K, x1 = 0.097	1212.1 ± 0.4	1.581 ± 0.096
333.15 K, x1 = 0.124	1244.5 ± 0.4	2.186 ± 0.13
333.15 K, x1 = 0.157	1276.7 ± 0.4	3.163 ± 0.19
333.15 K, x1 = 0.197	1307.8 ± 0.4	5.346 ± 0.32
333.15 K, x1 = 0.227	1324.2 ± 0.4	7.316 ± 0.44
338.15 K, x1 = 0.023	1060.1 ± 0.6	0.632 ± 0.038
338.15 K, x1 = 0.038	1101.2 ± 0.6	0.756 ± 0.046
338.15 K, x1 = 0.051	1130.8 ± 0.5	0.849 ± 0.051
338.15 K, x1 = 0.075	1175.6 ± 0.4	1.135 ± 0.069
338.15 K, x1 = 0.097	1209.5 ± 0.4	1.453 ± 0.088
338.15 K, x1 = 0.124	1241.5 ± 0.4	2.007 ± 0.12
338.15 K, x1 = 0.157	1273.5 ± 0.4	2.854 ± 0.17
338.15 K, x1 = 0.197	1304.7 ± 0.4	4.811 ± 0.29
338.15 K, x1 = 0.227	1321.1 ± 0.4	6.504 ± 0.39
343.15 K, x1 = 0.023	1057.7 ± 0.6	0.596 ± 0.036
343.15 K, x1 = 0.038	1098.7 ± 0.6	0.716 ± 0.043
343.15 K, x1 = 0.051	1128.3 ± 0.5	0.796 ± 0.048
343.15 K, x1 = 0.075	1173.2 ± 0.4	1.055 ± 0.064
343.15 K, x1 = 0.097	1206.6 ± 0.4	1.339 ± 0.081
343.15 K, x1 = 0.124	1238.3 ± 0.4	1.873 ± 0.11
343.15 K, x1 = 0.157	1270.4 ± 0.4	2.621 ± 0.16
343.15 K, x1 = 0.197	1301.5 ± 0.4	4.333 ± 0.26
343.15 K, x1 = 0.227	1317.9 ± 0.4	5.834 ± 0.35
348.15 K, x1 = 0.023	1055.3 ± 0.6	0.561 ± 0.034
348.15 K, x1 = 0.038	1096.2 ± 0.6	0.675 ± 0.041
348.15 K, x1 = 0.051	1125.7 ± 0.5	0.749 ± 0.045
348.15 K, x1 = 0.075	1170.4 ± 0.4	0.996 ± 0.06
348.15 K, x1 = 0.097	1203.8 ± 0.4	1.259 ± 0.076
348.15 K, x1 = 0.124	1235.2 ± 0.4	1.719 ± 0.1
348.15 K, x1 = 0.157	1267.6 ± 0.4	2.407 ± 0.15
348.15 K, x1 = 0.197	1298.3 ± 0.4	3.882 ± 0.23
348.15 K, x1 = 0.227	1315.1 ± 0.4	5.243 ± 0.32
